Reference: US20230202989A1, “COMPOUNDS” (JANSSEN PHARMACEUTICA NV, priority 2020, published 2023)
pEC50, pIC50: −log10 of the molar value. Like-named read-outs stand apart in the source and are kept apart here.

Experiments:
[1] = test system: IL-1β; assay: PBMC assay: inhibition of IL-1β release after LPS stimulation (MSD); format: cell-based; conditions: human PBMCs, 100 ng/ml LPS for 6 hrs, MSD, 96 well plates, read-out: IL1β IC50
How it was run: (§1)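 TNF (EC50) and IL-1β (IC50) were quantified by MSD in supernatants after 6 h stimulation with 100 ng/ml LPS. Thawed healthy-donor PBMCs, 7.5×10^4 per well, were exposed to 1:3 compound dilutions for 30 min beforehand at 37 °C.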

[2] = test system: TNF; assay: PBMC assay: TNF cytokine levels after LPS stimulation (MSD); format: cell-based; conditions: human PBMCs, 100 ng/ml LPS for 6 hrs
How it was run: as §1

CC(=O)N1C[C@@H](O)C[C@H](NC(=O)Cn2nc(C(C)C)c3cc(C(F)(F)F)ccc3c2=O)C1 (single isomer, unassigned) [Final Cpd X159]
pIC50 ([1]; Homo sapiens, PBMC, 6 h): 4.99
pEC50 ([2]; Homo sapiens, PBMC, 6 h): < 4.70

CC(C)c1nn(CC(=O)N[C@H]2CC[C@@H]2O)c(=O)c2ccc(C(F)(F)F)cc12 [Final Cpd X91]
pIC50 [1]: 6.02
pEC50 [2]: < 4.70

Cc1nnc2n1C[C@H](NC(=O)Cn1nc(C(C)C)c3cc(C(F)(F)F)ccc3c1=O)CC2 (single isomer, unassigned) [Final Cpd X163]
pIC50 ([1]; Homo sapiens, PBMC, 6 h): 4.82
pEC50 ([2]; Homo sapiens, PBMC, 6 h): < 4.70

CC(C)c1nn(CC(=O)Nc2cc(C(F)F)[nH]n2)c(=O)c2ccc(C(F)(F)F)cc12 [Final Cpd X39]
pIC50 ([1]; Homo sapiens, PBMC, 6 h): 6.46
pEC50 ([2]; Homo sapiens, PBMC, 6 h): 4.90

CC(C)c1nn(CC(=O)Nc2ccc3nnc(C(F)(F)F)n3n2)c(=O)c2ccc(C(F)(F)F)cc12 [Final Cpd X87]
pIC50 ([1]; Homo sapiens, PBMC, 6 h): 6.04
pEC50 ([2]; Homo sapiens, PBMC, 6 h): < 4.70

CC(C)c1nn(CC(=O)Nc2ccncn2)c(=O)c2ccc(Cl)cc12 [X-1028]
pIC50 ([1]; Homo sapiens, PBMC, 6 h): 6.89
pEC50 ([2]; Homo sapiens, PBMC, 6 h): < 4.70

CC(C)c1nn(CC(=O)N[C@@H]2C[C@H](O)CN(C)C2)c(=O)c2ccc(C(F)(F)F)cc12 (single isomer, unassigned) [Final Cpd X130]
pIC50 ([1]; Homo sapiens, PBMC, 6 h): 5.51
pEC50 ([2]; Homo sapiens, PBMC, 6 h): < 4.70

CC(C)c1nn(CC(=O)N[C@H]2C[C@@](C)(O)C2)c(=O)c2ccc(C3CC3)cc12 [Final Cpd 32]
pIC50 ([1]; Homo sapiens, PBMC, 6 h): 6.67
pEC50 ([2]; Homo sapiens, PBMC, 6 h): < 4.70

CC(C)c1nn(CC(=O)N[C@H]2C[C@@](C)(O)C2)c(=O)c2ccc(C(C)(F)F)cc12 [X-1062]
pIC50 ([1]; Homo sapiens, PBMC, 6 h): 7.05
pEC50 ([2]; Homo sapiens, PBMC, 6 h): < 4.70

CC(C)c1nn(CC(=O)N[C@@H]2CC[C@@H]2O)c(=O)c2ccc(C(F)(F)F)cc12 [Final Cpd X95]
pIC50 ([1]; Homo sapiens, PBMC, 6 h): 5.96
pEC50 ([2]; Homo sapiens, PBMC, 6 h): < 4.70

CC(C)c1nn(CC(=O)Nc2ccc3cnn(C)c3c2)c(=O)c2ccc(Br)cc12 [X-1033]
pIC50 ([1]; Homo sapiens, PBMC, 6 h): 6.07
pEC50 ([2]; Homo sapiens, PBMC, 6 h): < 4.70

CC(C)(F)c1nn(CC(=O)Nc2ccncn2)c(=O)c2ccc(C(F)(F)F)cc12 [Final Cpd X180]
pIC50 ([1]; Homo sapiens, PBMC, 6 h): < 4.70
pEC50 ([2]; Homo sapiens, PBMC, 6 h): < 4.70

CCc1nn(CC(=O)Nc2ccnnc2)c(=O)c2ccc(C(F)(F)F)cc12 [Final Cpd X30]
pIC50 ([1]; Homo sapiens, PBMC, 6 h): 6.66
pEC50 ([2]; Homo sapiens, PBMC, 6 h): < 4.70

CC(C)c1nn(CC(=O)Nc2ccc3nncn3c2)c(=O)c2ccc(N(C)C)cc12 [X-1046]
pIC50 ([1]; Homo sapiens, PBMC, 6 h): 6.37
pEC50 ([2]; Homo sapiens, PBMC, 6 h): < 4.70

CC(C)c1nn(CC(=O)N[C@@H]2CCCN(C3CC3)C2)c(=O)c2ccc(C(F)(F)F)cc12 [Final Cpd X10]
pIC50 ([1]; Homo sapiens, PBMC, 6 h): 7.04
pEC50 ([2]; Homo sapiens, PBMC, 6 h): < 4.70

CC(C)c1nn(CC(=O)Nc2ccc(C(F)(F)F)nn2)c(=O)c2ccc(C(F)(F)F)cc12 [Final Cpd X161]
pIC50 ([1]; Homo sapiens, PBMC, 6 h): 4.85
pEC50 ([2]; Homo sapiens, PBMC, 6 h): < 4.70

CC(C)c1nn(CC(=O)Nc2ccc3ncnn3c2)c(=O)c2ccc(C(F)(F)F)cc12 [Final Cpd X38]
pIC50 ([1]; Homo sapiens, PBMC, 6 h): 6.48
pEC50 ([2]; Homo sapiens, PBMC, 6 h): < 4.70

CC(C)c1nn(CC(=O)Nc2ccncn2)c(=O)c2ccc(C(F)(F)F)cc12 [Final Cpd 15]
pIC50 ([1]; Homo sapiens, PBMC, 6 h): 6.75
pEC50 ([2]; Homo sapiens, PBMC, 6 h): < 4.70

CC(C)c1nn(CC(=O)Nc2cc(Cl)c(=O)n(C(F)F)c2)c(=O)c2ccc(C(F)(F)F)cc12 [Final Cpd X120]
pIC50 ([1]; Homo sapiens, PBMC, 6 h): 5.59
pEC50 ([2]; Homo sapiens, PBMC, 6 h): < 4.70

CCc1ccc2c(=O)n(CC(=O)N[C@H]3CC[C@H](O)CC3)nc(CC)c2c1 [Final Cpd 29]
pIC50 ([1]; Homo sapiens, PBMC, 6 h): 5.44
pEC50 ([2]; Homo sapiens, PBMC, 6 h): < 5.00

CC(C)c1nn(CC(=O)Nc2ccncn2)c(=O)c2ccc(C(C)(C)C)cc12 [X-1050]
pIC50 ([1]; Homo sapiens, PBMC, 6 h): 6.00
pEC50 ([2]; Homo sapiens, PBMC, 6 h): < 4.70

CC(C)c1nn(CC(=O)N[C@H]2C[C@@](C)(O)C2)c(=O)c2ccc(OCC(F)(F)F)cc12 [X-1039]
pIC50 ([1]; Homo sapiens, PBMC, 6 h): 4.89
pEC50 ([2]; Homo sapiens, PBMC, 6 h): < 4.70

CC(C)c1nn(CC(=O)Nc2ccc3nncn3c2)c(=O)c2ccc(C(F)(F)F)c(F)c12 [Final Cpd X26]
pIC50 ([1]; Homo sapiens, PBMC, 6 h): 6.73
pEC50 ([2]; Homo sapiens, PBMC, 6 h): < 4.70

CC(C)c1nn(CC(=O)Nc2ccc(=O)n(C)n2)c(=O)c2ccc(C(C)(F)F)cc12 [X-1065]
pIC50 ([1]; Homo sapiens, PBMC, 6 h): 6.53
pEC50 ([2]; Homo sapiens, PBMC, 6 h): 4.80

CCc1nn(CC(=O)N[C@H]2C[C@@](C)(O)C2)c(=O)c2ccc(C(C)C)cc12 [Final Cpd 20]
pIC50 ([1]; Homo sapiens, PBMC, 6 h): 6.62
pEC50 ([2]; Homo sapiens, PBMC, 6 h): < 5.00

CC(C)c1nn(CC(=O)Nc2ccc3nc(C(F)(F)F)cn3c2)c(=O)c2ccc(C(F)(F)F)cc12 [Final Cpd X64, 2-(4-isopropyl-1-oxo-6-(trifluoromethyl)phthalazin-2(1H)-yl)-N-(2-(trifluoromethyl)imidazo[1,2-a]pyridin-6-yl)acetamide]
pIC50 ([1]; Homo sapiens, PBMC, 6 h): 6.18
pEC50 ([2]; Homo sapiens, PBMC, 6 h): < 4.70

O=C(Cn1nc(CCC(F)(F)F)c2cc(C(F)(F)F)ccc2c1=O)Nc1ccc2nncn2c1 [Final Cpd X76]
pIC50 [1]: 6.08
pEC50 [2]: < 4.70

O=C(Cn1nc(C(O)C(F)(F)F)c2cc(C(F)(F)F)ccc2c1=O)Nc1ccc2nncn2c1 (stereo not shown) [Final Cpd X61]
pIC50 ([1]; Homo sapiens, PBMC, 6 h): 6.23
pEC50 ([2]; Homo sapiens, PBMC, 6 h): < 4.70

CC(C)c1nn(CC(=O)Nc2ccc3c(c2)[nH]c(=O)n3C)c(=O)c2ccc(Br)cc12 [X-1031]
pIC50 ([1]; Homo sapiens, PBMC, 6 h): 7.52
pEC50 ([2]; Homo sapiens, PBMC, 6 h): 5.33

CCN1CCCC(NC(=O)Cn2nc(C(C)C)c3cc(C(F)(F)F)ccc3c2=O)C1=O (stereo not shown) [Final Cpd X152]
pIC50 ([1]; Homo sapiens, PBMC, 6 h): 5.12
pEC50 ([2]; Homo sapiens, PBMC, 6 h): < 4.70

COC1(c2nn(CC(=O)Nc3ccc4nncn4c3)c(=O)c3ccc(C(F)(F)F)cc23)CC1 [Final Cpd X158]
pIC50 ([1]; Homo sapiens, PBMC, 6 h): 5.00
pEC50 ([2]; Homo sapiens, PBMC, 6 h): < 4.70

CC(C)c1nn(CC(=O)N[C@H]2C[C@@H](O)CN(C)C2)c(=O)c2ccc(C(F)(F)F)cc12 [Final Cpd X122]
pIC50 ([1]; Homo sapiens, PBMC, 6 h): 5.57
pEC50 ([2]; Homo sapiens, PBMC, 6 h): < 4.70

CCOC(C)c1ccc2c(=O)n(CC(=O)N[C@H]3C[C@@](C)(O)C3)nc(C(C)C)c2c1 (stereo partly shown) [X-1042]
pIC50 ([1]; Homo sapiens, PBMC, 6 h): 4.91
pEC50 ([2]; Homo sapiens, PBMC, 6 h): < 4.70

CC(C)c1nn(CC(=O)Nc2ccncn2)c(=O)c2ccc(C3CC3)cc12 [Final Cpd 23]
pIC50 ([1]; Homo sapiens, PBMC, 6 h): 6.54
pEC50 ([2]; Homo sapiens, PBMC, 6 h): 4.92

COC(c1nn(CC(=O)Nc2ccc3nncn3c2)c(=O)c2ccc(C(F)(F)F)cc12)C(F)(F)F (stereo not shown) [Final Cpd X135]
pIC50 ([1]; Homo sapiens, PBMC, 6 h): 5.46
pEC50 ([2]; Homo sapiens, PBMC, 6 h): < 4.70

CCc1nn(CC(=O)N[C@H]2CC[C@H](O)CC2)c(=O)c2ccc(Br)cc12 [Final Cpd 24, trans-2-(6-bromo-4-ethyl-1-oxo-phthalazin-2-yl)-N-(4-hydroxycyclohexyl)acetamide]
pIC50 ([1]; Homo sapiens, PBMC, 6 h): 6.05
pEC50 ([2]; Homo sapiens, PBMC, 6 h): < 5.00

O=C(Cn1nc(C(F)F)c2cc(Br)ccc2c1=O)Nc1ccc2nncn2c1 [X-1019]
pIC50 ([1]; Homo sapiens, PBMC, 6 h): 6.74
pEC50 ([2]; Homo sapiens, PBMC, 6 h): < 4.70

CC(O)c1nn(CC(=O)Nc2ccncn2)c(=O)c2ccc(Br)cc12 (stereo not shown) [X-1081]
pIC50 ([1]; Homo sapiens, PBMC, 6 h): 6.05
pEC50 ([2]; Homo sapiens, PBMC, 6 h): < 4.70

C[C@]1(O)C[C@@H](NC(=O)Cn2nc(C3CC3)c3cc(C(F)(F)F)ccc3c2=O)C1 [Final Cpd X4]
pIC50 ([1]; Homo sapiens, PBMC, 6 h): 7.22
pEC50 ([2]; Homo sapiens, PBMC, 6 h): < 4.70

Cc1nnc2cc(NC(=O)Cn3nc(C(C)C)c4cc(C(F)(F)F)ccc4c3=O)ccn12 [Final Cpd X165]
pIC50 ([1]; Homo sapiens, PBMC, 6 h): 4.79
pEC50 ([2]; Homo sapiens, PBMC, 6 h): < 4.70

CC(C)c1nn(CC(=O)Nc2ccc3nncn3n2)c(=O)c2ccc(C3(F)CC3)cc12 [X-1007]
pIC50 ([1]; Homo sapiens, PBMC, 6 h): 7.82
pEC50 ([2]; Homo sapiens, PBMC, 6 h): 5.67

CC(O)c1nn(CC(=O)Nc2ccncn2)c(=O)c2ccc(C(F)(F)F)cc12 (stereo not shown) [Final Cpd X103]
pIC50 ([1]; Homo sapiens, PBMC, 6 h): 5.88
pEC50 ([2]; Homo sapiens, PBMC, 6 h): < 4.70

CC(C)c1nn(CC(=O)N[C@H]2CN(C3CC(F)(F)C3)CC[C@H]2O)c(=O)c2ccc(C(F)(F)F)cc12 [Final Cpd X83]
pIC50 ([1]; Homo sapiens, PBMC, 6 h): 6.04
pEC50 ([2]; Homo sapiens, PBMC, 6 h): 4.89

CC1(c2nn(CC(=O)Nc3ccc4nncn4c3)c(=O)c3ccc(C(F)(F)F)cc23)CC1 [Final Cpd X125]
pIC50 ([1]; Homo sapiens, PBMC, 6 h): 5.54
pEC50 ([2]; Homo sapiens, PBMC, 6 h): < 4.70
